Peptide text beside a SMILES is read from it.
What was measured:
[1] = biological target: T1, HLA-DRB1*0101 (Homo sapiens, UniProt P01903+P01911, A100R/D57E/F55L/F60I/F76Y/I96L/L162R/M171V/P40L/Q125E/R42F/V115G/Y59C); test: In vitro class II HLA binding competition assay; conditions: competition with fluorescent-labeled reference peptide, class II HLA monomers, 24-hours, test peptide 100,000 nM to 100 nM, time-resolved fluorescence
T1 construct: purchased
Description: (§1) EpiVax conducted in vitro quantification of peptide-HLA binding affinity utilizing a competition assay format per the methodology described in ([35]). Briefly, a fluorescent-labeled, high-binding reference peptide and titrating concentrations of test peptide were incubated in a 96-well plate format with limiting concentrations of class II HLA monomers in aqueous buffer for 24-hours. Post incubation, the mixtures were moved to a 96-well plate coated with anti-HLA-DR antibody to capture HLA-peptide complexes. Time-resolved fluorescence measurement of the bound labeled reference peptide complex present in each mixture were detected with a europium-linked probe via fluorescent spectrophotometry using a SpectraMax M5 system. HLA binding affinity of each test peptide was expressed as the percent inhibition of reference peptide binding. Percent inhibition values (across the test peptide titration range) were used to calculate the half maximal inhibitory concentration (IC50) of each test peptide. For these studies, test peptides were assessed using a range of final concentrations from 100,000 nM to 100 nM and all peptides were reconstituted in dimethyl sulfoxide (DMSO).

[2] = biological target: T2, HLA-DRB1*0401 (Homo sapiens, UniProt P01903+P01911, A100K/A169T/F76Y/I96L/K127E/L162R/M171V/N62H/P40V/Q125Y/R42H/S133A/S149N/S66Y/V115G/V209L/W38E); test: In vitro class II HLA binding competition assay
T2 construct: purchased
Description: as §1

[3] = biological target: HLA-DRB1*0701 (Homo sapiens, UniProt P01903+P01911, A100R/A102G/A103Q/D57E/D86V/E43K/F76Y/K127E/L162R/M171V/P40G/Q125H/Q99D/R33Q/R42Y/R54Q/S133A/S66F/T210M/V115G/Y107V/Y59L/Y89S); test: In vitro class II HLA binding competition assay
Description: as §1

[4] = biological target: HLA-DRB1*0801 (Homo sapiens, UniProt P01903+P01911, A100R/A103L/A169T/D86S/F76Y/H45Y/I96F/K41T/L162R/M171V/P40S/Q125H/Q178H/Q39Y/Q99D/R218S/R42G/S66Y/V115G/W38E); test: In vitro class II HLA binding competition assay; conditions: competition with fluorescent-labeled reference peptide, class II HLA monomers, 24-hours, test peptide 100,000 nM to 100 nM, time-resolved fluorescence
Description: as §1

[5] = biological target: T3, HLA-DRB1*1101 (Homo sapiens, UniProt P01903+P01911, A100R/A169T/A87E/I96F/K41T/L162R/M171V/P40S/Q125H/Q178H/Q39Y/Q99D/R42S/S66Y/T262R/V115G/W38E); test: In vitro class II HLA binding competition assay; conditions: competition with fluorescent-labeled reference peptide, class II HLA monomers, 24-hours, test peptide 100,000 nM to 100 nM, time-resolved fluorescence
T3 construct: purchased
Description: as §1

[6] = biological target: HLA-DRB1*1301 (Homo sapiens, UniProt P01903+P01911, A100E/A169T/K41T/L162R/M171V/P40S/Q125H/Q178H/Q39Y/Q99D/R42S/S66N/T262R/W38E/Y61H); test: In vitro class II HLA binding competition assay; conditions: competition with fluorescent-labeled reference peptide, class II HLA monomers, 24-hours, test peptide 100,000 nM to 100 nM, time-resolved fluorescence
Description: as §1

[7] = biological target: T4, HLA-DRB1*1501 (Homo sapiens, UniProt P01903+P01911); test: In vitro class II HLA binding competition assay
T4 construct: purchased
Description: as §1

[8] = system: CD4 T cells co-cultured with autologous DCs from PBMCs; type: cell-based, human; conditions: positive = Stimulation Index ≥1.5-fold above baseline, 5 µg/mL peptide

Q: With `CC[C@H](C)[C@H](NC(C)=O)C(=O)N[C@H](C(=O)N[C@@H](CCC(=O)O)C(=O)N[C@@H](Cc1ccc(O)cc1)C(=O)N[C@@H](CC(C)C)C(=O)N[C@@H](CCCCN)C(=O)N[C@@H](CCCCN)C(=O)N[C@H](C(=O)N[C@@H](CCC(N)=O)C(=O)N[C@@H](CC(N)=O)C(=O)N[C@@H](CO)C(=O)N[C@@H](CC(C)C)C(=O)N[C@@H](CO)C(=O)N[C@H](C(=O)N[C@@H](CCC(=O)O)C(=O)N[C@@H](Cc1c[nH]c2ccccc12)C(=O)N[C@@H](CO)C(=O)N1CCC[C@H]1C(=O)N[C@@H](CS)C(=O)N[C@@H](CO)C(N)=O)[C@@H](C)O)[C@@H](C)CC)[C@@H](C)O` [ICS2] (Ac-ITEYLKKIQNSLSTEWSPCS-NH2) as the molecule, how does the IC50 [1] read?
A: Its IC50 is 83.9 µM.

Q: What about the IC50 [2] of the same molecule?
A: The IC50 was 0.377 µM.

Q: And the IC50 [3]?
A: The IC50 was 20 µM.

Q: What about the IC50 [4] of the same molecule?
A: The IC50 was 4.76 µM.

Q: What about the IC50 [5] of the same molecule?
A: Its IC50 is 43.7 µM.

Q: What about the IC50 [6] of the same molecule?
A: Its IC50 is 73.2 µM.

Q: And the IC50 [7]?
A: Its IC50 is 8.47 µM.

Q: And the “Percentage of donors demonstrating IFN-γ responses, DR1” value ([8]; DR1 donors N=5, ICCS after 14-day co-culture)?
A: Its value is 40%.

Q: What about the “Percentage of donors demonstrating IL-2 responses, DR1” value ([8]; DR1 donors N=5, ICCS) of the same molecule?
A: The value was 40%.

Q: And the “Percentage of donors demonstrating IL-4 responses, DR1” value ([8]; DR1 donors N=5, ICCS)?
A: The value was 0%.

Q: And the “Percentage of donors demonstrating IL-10 responses, DR1” value ([8]; DR1 donors N=5, ICCS)?
A: The value was 0%.

Q: And the “Percentage of donors demonstrating TNF-α responses, DR1” value ([8]; DR1 donors N=5, ICCS)?
A: The value was 40%.

Q: What about the “Percentage of donors demonstrating IFN-γ responses, DR3” value ([8]; DR3 donors N=6, ICCS after 14-day co-culture) of the same molecule?
A: Its value is 33%.

Q: And the “Percentage of donors demonstrating IL-2 responses, DR3” value ([8]; DR3 donors N=6, ICCS)?
A: The value was 33%.

Q: What about the “Percentage of donors demonstrating IL-4 responses, DR3” value ([8]; DR3 donors N=6, ICCS) of the same molecule?
A: The value was 33%.

Q: What about the “Percentage of donors demonstrating IL-10 responses, DR3” value ([8]; DR3 donors N=6, ICCS) of the same molecule?
A: The value was 33%.

Q: What about the “Percentage of donors demonstrating TNF-α responses, DR3” value ([8]; DR3 donors N=6, ICCS) of the same molecule?
A: The value was 17%.

Q: And the “Percentage of donors demonstrating IFN-γ responses, DR4” value ([8]; DR4 donors N=10, ICCS after 14-day co-culture)?
A: The value was 40%.

Q: And the “Percentage of donors demonstrating IL-2 responses, DR4” value ([8]; DR4 donors N=10, ICCS)?
A: Its value is 20%.

Q: And the “Percentage of donors demonstrating IL-4 responses, DR4” value ([8]; DR4 donors N=10, ICCS)?
A: The value was 10%.

Q: What about the “Percentage of donors demonstrating IL-10 responses, DR4” value ([8]; DR4 donors N=10, ICCS) of the same molecule?
A: Its value is 0%.

Q: And the “Percentage of donors demonstrating TNF-α responses, DR4” value ([8]; DR4 donors N=10, ICCS)?
A: The value was 50%.

Q: And the “Percentage of donors demonstrating IFN-γ responses, DR7” value ([8]; DR7 donors N=4, ICCS after 14-day co-culture)?
A: Its value is 50%.

Q: What about the “Percentage of donors demonstrating IL-2 responses, DR7” value ([8]; DR7 donors N=4, ICCS) of the same molecule?
A: The value was 0%.

Q: What about the “Percentage of donors demonstrating IL-4 responses, DR7” value ([8]; DR7 donors N=4, ICCS) of the same molecule?
A: The value was 0%.

Q: And the “Percentage of donors demonstrating IL-10 responses, DR7” value ([8]; DR7 donors N=4, ICCS)?
A: The value was 0%.

Q: What about the “Percentage of donors demonstrating TNF-α responses, DR7” value ([8]; DR7 donors N=4, ICCS) of the same molecule?
A: The value was 25%.

Q: And the “Percentage of donors demonstrating IFN-γ responses, DR8” value ([8]; DR8 donors N=4, ICCS after 14-day co-culture)?
A: Its value is 50%.

Q: What about the “Percentage of donors demonstrating IL-2 responses, DR8” value ([8]; DR8 donors N=4, ICCS) of the same molecule?
A: Its value is 25%.

Q: What about the “Percentage of donors demonstrating IL-4 responses, DR8” value ([8]; DR8 donors N=4, ICCS) of the same molecule?
A: Its value is 0%.

Q: And the “Percentage of donors demonstrating IL-10 responses, DR8” value ([8]; DR8 donors N=4, ICCS)?
A: The value was 25%.

Q: What about the “Percentage of donors demonstrating TNF-α responses, DR8” value ([8]; DR8 donors N=4, ICCS) of the same molecule?
A: The value was 50%.

Q: What about the “Percentage of donors demonstrating IFN-γ responses, DR9” value ([8]; DR9 donors N=4, ICCS after 14-day co-culture) of the same molecule?
A: Its value is 0%.

Q: What about the “Percentage of donors demonstrating IL-2 responses, DR9” value ([8]; DR9 donors N=4, ICCS) of the same molecule?
A: Its value is 25%.

Q: And the “Percentage of donors demonstrating IL-4 responses, DR9” value ([8]; DR9 donors N=4, ICCS)?
A: The value was 0%.

Q: What about the “Percentage of donors demonstrating IL-10 responses, DR9” value ([8]; DR9 donors N=4, ICCS) of the same molecule?
A: The value was 0%.

Q: What about the “Percentage of donors demonstrating TNF-α responses, DR9” value ([8]; DR9 donors N=4, ICCS) of the same molecule?
A: Its value is 25%.

Q: What about the “Percentage of donors demonstrating IFN-γ responses, DR11” value ([8]; DR11 donors N=4, ICCS after 14-day co-culture) of the same molecule?
A: The value was 25%.

Q: And the “Percentage of donors demonstrating IL-2 responses, DR11” value ([8]; DR11 donors N=4, ICCS)?
A: The value was 25%.

Q: And the “Percentage of donors demonstrating IL-4 responses, DR11” value ([8]; DR11 donors N=4, ICCS)?
A: The value was 0%.

Q: And the “Percentage of donors demonstrating IL-10 responses, DR11” value ([8]; DR11 donors N=4, ICCS)?
A: Its value is 0%.

Q: What about the “Percentage of donors demonstrating TNF-α responses, DR11” value ([8]; DR11 donors N=4, ICCS) of the same molecule?
A: The value was 50%.

Q: And the “Percentage of donors demonstrating IFN-γ responses, DR13” value ([8]; DR13 donors N=7, ICCS after 14-day co-culture)?
A: The value was 57%.

Q: And the “Percentage of donors demonstrating IL-2 responses, DR13” value ([8]; DR13 donors N=7, ICCS)?
A: The value was 29%.

Q: And the “Percentage of donors demonstrating IL-4 responses, DR13” value ([8]; DR13 donors N=7, ICCS)?
A: Its value is 14%.

Q: What about the “Percentage of donors demonstrating IL-10 responses, DR13” value ([8]; DR13 donors N=7, ICCS) of the same molecule?
A: Its value is 29%.

Q: And the “Percentage of donors demonstrating TNF-α responses, DR13” value ([8]; DR13 donors N=7, ICCS)?
A: The value was 71%.

Q: And the “Percentage of donors demonstrating IFN-γ responses, DR15” value ([8]; DR15 donors N=7, ICCS after 14-day co-culture)?
A: The value was 43%.

Q: And the “Percentage of donors demonstrating IL-2 responses, DR15” value ([8]; DR15 donors N=7, ICCS)?
A: The value was 14%.

Q: What about the “Percentage of donors demonstrating IL-4 responses, DR15” value ([8]; DR15 donors N=7, ICCS) of the same molecule?
A: The value was 0%.

Q: What about the “Percentage of donors demonstrating IL-10 responses, DR15” value ([8]; DR15 donors N=7, ICCS) of the same molecule?
A: Its value is 14%.

Q: What about the “Percentage of donors demonstrating TNF-α responses, DR15” value ([8]; DR15 donors N=7, ICCS) of the same molecule?
A: Its value is 29%.

Source: article PMC8217813, “Bridging Computational Vaccinology and Vaccine Development Through Systematic Identification, Characterization, and Downselection of Conserved and Variable Circumsporozoite Protein CD4 T Cell Epitopes From Diverse Plasmodium falciparum Strains” (Frontiers in Immunology, 2021)
